pIC50: −log10 of the molar value.
Target: T1, Dual specificity mitogen-activated protein kinase kinase 7 (Homo sapiens, UniProt O14733)
T1 sequence (O14733 whole entry): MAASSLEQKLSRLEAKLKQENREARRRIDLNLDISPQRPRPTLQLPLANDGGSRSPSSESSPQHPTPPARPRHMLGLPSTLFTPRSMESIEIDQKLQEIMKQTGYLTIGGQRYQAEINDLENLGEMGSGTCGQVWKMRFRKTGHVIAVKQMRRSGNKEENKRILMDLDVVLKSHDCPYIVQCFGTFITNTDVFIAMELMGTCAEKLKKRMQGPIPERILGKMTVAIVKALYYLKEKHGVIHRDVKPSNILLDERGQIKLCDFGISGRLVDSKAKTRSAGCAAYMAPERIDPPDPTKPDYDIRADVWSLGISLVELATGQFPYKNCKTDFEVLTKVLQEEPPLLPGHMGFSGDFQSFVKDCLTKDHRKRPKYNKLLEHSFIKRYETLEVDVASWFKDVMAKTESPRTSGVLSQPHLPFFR
Assay: Inhibition of MAP2K7 (unknown origin) using JNK peptide KFMMTPYVVTR incubated for 30 mins measured by multimode reader based ADP-glo assay

pIC50: 8.19
Compound: C#CCNC(=O)c1cc(NC(=O)C=C)cc(-c2n[nH]c3ccccc23)c1
